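Interpolation was linear, between the two tested concentrations surrounding the appropriate level; five concentrations were tested over 48 hours in 96-well plates. Abbreviation: GI50, concentration required for 50% inhibition of growth. TGI is the concentration that stops growth completely.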
Experiments:
Assay in all cases: growth of human tumour cells (NCI), 48 h
786-0 renal = system: 786-0 renal
A498 renal = system: A498 renal
A549 NSCLC = system: A549 NSCLC
ACHN renal = system: ACHN renal
BT-549 breast = system: BT-549 breast
CAKI-1 renal = system: CAKI-1 renal
CCRF-CEM leukemia = system: CCRF-CEM leukemia
COLO 205 colon = system: COLO 205 colon
DU-145 prostate = system: DU-145 prostate
HCC-2998 colon = system: HCC-2998 colon
HCT-116 colon = system: HCT-116 colon
HCT-15 colon = system: HCT-15 colon
HL-60(TB) leukemia = system: HL-60(TB) leukemia
HOP-62 NSCLC = system: HOP-62 NSCLC
HS 578T breast = system: HS 578T breast
HT29 colon = system: HT29 colon
IGROV1 ovarian = system: IGROV1 ovarian
K-562 leukemia = system: K-562 leukemia
KM12 colon = system: KM12 colon
M14 melanoma = system: M14 melanoma
MALME-3M melanoma = system: MALME-3M melanoma
MCF7 breast = system: MCF7 breast
MDA-MB-231 breast = system: MDA-MB-231 breast
MDA-MB-435 = system: MDA-MB-435
MOLT-4 leukemia = system: MOLT-4 leukemia
NCI-H226 lung = system: NCI-H226 lung
NCI-H23 lung = system: NCI-H23 lung

With `COc1cc(/C=C/C(=O)c2ccccc2)cc(OC)c1OC` the GI50 (786-0 renal) was 2.74 µM, the TGI (786-0 renal) was 7.36 µM and the GI50 (A498 renal) was 12.3 µM. For the same compound, the TGI (A498 renal) was 25.3 µM, the GI50 (A549 NSCLC) was 6.14 µM and the TGI (A549 NSCLC) was 23 µM. The GI50 (ACHN renal) was 2.31 µM, the TGI (ACHN renal) was 6.29 µM and the GI50 (BT-549 breast) was 3.79 µM. The TGI (BT-549 breast) was 11.2 µM, the GI50 (CAKI-1 renal) was 5.61 µM and the TGI (CAKI-1 renal) was 19.9 µM. The GI50 (CCRF-CEM leukemia) was 1.49 µM, the TGI (CCRF-CEM leukemia) was 5.89 µM and the GI50 (COLO 205 colon) was 9.32 µM. The TGI (COLO 205 colon) was 21.7 µM, the GI50 (DU-145 prostate) was 4.92 µM and the TGI (DU-145 prostate) was 16.4 µM. It also gave a GI50 (HCC-2998 colon) of 12.3 µM, a TGI (HCC-2998 colon) of 25.6 µM and a GI50 (HCT-116 colon) of 1.98 µM. The TGI (HCT-116 colon) was 4.07 µM, the GI50 (HCT-15 colon) was 1.99 µM and the TGI (HCT-15 colon) was 5.26 µM. For the same compound, the GI50 (HL-60(TB) leukemia) was 2.56 µM, the TGI (HL-60(TB) leukemia) was 6.82 µM and the GI50 (HOP-62 NSCLC) was 6.06 µM. The TGI (HOP-62 NSCLC) was 19.7 µM, the GI50 (HS 578T breast) was 4.62 µM and the TGI (HS 578T breast) was 39.8 µM. It also gave a GI50 (HT29 colon) of 2.47 µM, a TGI (HT29 colon) of 5.37 µM and a GI50 (IGROV1 ovarian) of 4.04 µM. For the same compound, the TGI (IGROV1 ovarian) was 14.2 µM, the GI50 (K-562 leukemia) was 3.23 µM and the TGI (K-562 leukemia) was 10.7 µM. For the same compound, the GI50 (KM12 colon) was 3.22 µM, the TGI (KM12 colon) was 10.2 µM and the GI50 (M14 melanoma) was 3.27 µM. The TGI (M14 melanoma) was 11.6 µM, the GI50 (MALME-3M melanoma) was 4.83 µM and the TGI (MALME-3M melanoma) was 19.7 µM. For the same compound, the GI50 (MCF7 breast) was 0.398 µM, the TGI (MCF7 breast) was 10.3 µM and the GI50 (MDA-MB-231 breast) was 5.61 µM. The TGI (MDA-MB-231 breast) was 20 µM, the GI50 (MDA-MB-435) was 3.06 µM and the TGI (MDA-MB-435) was 11.3 µM. The GI50 (MOLT-4 leukemia) was 2.94 µM, the TGI (MOLT-4 leukemia) was 8.13 µM and the GI50 (NCI-H226 lung) was 2.96 µM. For the same compound, the TGI (NCI-H226 lung) was 14.3 µM and the GI50 (NCI-H23 lung) was 7.45 µM.

Reference: PubChem BioAssay (NCI)
